# Laboratory results published in patent publication US10627402B2, “Peptides for targeting gastric cancer, and medical use tehreof” (priority 2014, dated 2020).
# What was measured:
# [1] = tested on: patient's gastric cancer tissue; assay: In vivo imaging of Cy5.5-labeled peptide-expressing phages (IVIS spectrum, ROI values); parameters: species or system mouse; unit not given here; conditions: Cy5.5-labeled phage, tail vein injection, 2nd day
# Protocol: (§1) Considering overcoming limitations that existing animal models transplanted with cultured cancer cells had, an ideal animal model of cancer similar to actual patient's cancer microenvironments is prepared. Then, to establish an animal model that can confirm influence of an irradiation-dependent cancer tissue, first, a mouse model transplanted with a cancer tissue that was extracted from an actual patient having gastric cancer was established. Regarding the establishment of such an animal model, the cancer tissue extracted from a patient was cultured in an NOD/SCID mouse. Once the cancer tissue was found in the NOD/SCID mouse, subculturing was carried out by using a Balb/c nude mouse, beginning from the next subculturing. In detail, after an NOD/SCID mouse was anesthetized via intraperitoneal injection of anesthetics, the cancer tissue was cut into pieces each having a size of 3×3 mm. Next, each of both flanks of the NOD/SCID mouse was transplanted with a piece of the cut cancer tissues, treated with a mixed solution of 100 μl of 100 IU/ml penicillin, 100 μg/ml streptomycin, 100 μg/ml gentamicin, and 2.5 μg/ml amphotericin B antibiotics, and then, sutured. The NOD/SCID mouse was recovered on a heating pad (for about 2 hours). Afterwards, the formation and growth of tumors were observed every week. When the cancer tissues grew to a size of 400-500 mm^3, the cancer tissues were separated and cut into pieces each having a size of 3×3 mm for subculturing. Next, for next subculturing, a nude mouse was anesthetized via intraperitoneal injection of anesthetics, and a piece of the cut cancer tissues was transplanted subcutaneously on the right thigh of the nude mouse. A transplantation site was changed from the flank to the both thighs so that irradiation can be locally done without affecting other organs during irradiation. That is, a mouse model in which a cancer tissue that underwent subculturing and was re-transplanted up to four times was formed was established. […] After having recovery time for no longer than 24 hours, in vivo peptide screening was performed. Here, as a control group in an irradiated population, a mouse model that was not irradiated among the same mouse models was used to screen a peptide.
# (§2) In particular, 1 μg/μl of N-hydroxysuccinimide esters of Cy5.5 (Amersham) was added to 1 mL of bicarbonate buffer (pH 8.3) having the phage concentration of 10^11 plaque forming units (pfu), and then, in a condition where a dark environment was maintained, […] a phage-surface protein was linked to the Cy5.5 fluorescent probe at room temperature for 3 hours. That is, loop peptide-expressing phages to which the Cy5.5 fluorescent probe was linked were each obtained by precipitation with 170 μl of 20% (w/v) PEG 8000/2.5 M NaCl solution and purification. To determine a proportion of the Cy5.5 fluorescent probe linked to each of the finally obtained phage samples, an IVIS spectrum imaging system (Xenogen) was used for measurement, and region of interest (ROI) values were determined using the software program of a corresponding device. Accordingly, it was confirmed that the Cy5.5 fluorescent probe was linked to each of the phage samples at almost the same linking proportion.
# (§3) After each of the prepared phages expressing the loop peptide was injected into the ratio-sensitive xenograft mouse model of Example 1 and the control group through the vein tail of the mouse, images were measured for 2 days immediately after the injection, thereby confirming images showing in vivo circulation of the peptide and the targeting of the peptide only in the cancer tissue while the targeting to other organs and tissues gradually disappeared. […] In addition, to verify which part of the cancer tissue was targeted by each of the loop peptide-expressing phages via ex vivo imaging, only the cancer tissue was separated and extracted, and the whole cancer tissue itself and the respective cancer tissue were subjected to fragmentation into several pieces. […]
# [2] = tested on: patient's gastric cancer tissue; assay: Ex vivo imaging of extracted cancer tissue (IVIS spectrum, ROI values); type: in vivo, mouse; parameters: unit not given here
# Protocol: as §1, §2, §3
# [3] = tested on: patient's gastric cancer tissue; assay: Titering of phages eluted from extracted cancer tissue, relative to tissue weight; type: in vivo, mouse
# Protocol: as §1
# After each of the prepared phages expressing the loop peptide was injected into the ratio-sensitive xenograft mouse model of Example 1 and the control group through the vein tail of the mouse, images were measured for 2 days immediately after the injection, thereby confirming images showing in vivo circulation of the peptide and the targeting of the peptide only in the cancer tissue while the targeting to other organs and tissues gradually disappeared. […] In addition, to verify which part of the cancer tissue was targeted by each of the loop peptide-expressing phages via ex vivo imaging, only the cancer tissue was separated and extracted, and the whole cancer tissue itself and the respective cancer tissue were subjected to fragmentation into several pieces.
# To compare targeting efficiency more accurately based on the results of FIGS. 5 and 6, the pieces of the extracted cancer tissue the pieces of the extracted cancer tissue were collected independently, and phages bound to the cancer tissues were eluted. The concentration of each of the eluted phages was measured according to titering, and due to different size and weight of the extracted cancer tissue, the weight of each cancer tissue was also measured in terms of establishing numerical standardization. In this regard, the amount of the identified phages was calculated relative to the weight of the cancer tissue. In addition, to more accurately quantify each imaging result, the in vivo imaging and the ex vivo imaging were confirmed by measuring ROI values that were determined using the IVIS spectrum (Xenogen) program, and the results thereof are shown in Table 2.
# [4] = Non-irradiated population as control
Substance,in vivo ROI ([1]; Irradiated population (10 Gy)),ex vivo ROI ([2]; Irradiated population (10 Gy)),pfu/mg ([3]; Irradiated population (10 Gy)) [pfu/mg],"in vivo ROI [1, 4]","ex vivo ROI [2, 4]","pfu/mg [3, 4] [pfu/mg]"
"TVRTSAD [Peptide P1, 7-amino-acid loop peptide from irradiated population; tested as Cy5.5-labeled M13 phage expressing it]",16.44,70.66,25.3,,,
"NRGDRIL [Peptide P3, 7-amino-acid loop peptide from irradiated population; tested as Cy5.5-labeled M13 phage expressing it]",19.83,77.85,18.6,,,
"NWGDRIL [Peptide W1, 7-amino-acid loop peptide from non-irradiated population; tested as Cy5.5-labeled M13 phage expressing it]",,,,1.86,2.08,11.8
"RYVGTLF [Peptide P2, 7-amino-acid loop peptide from irradiated population; tested as Cy5.5-labeled M13 phage expressing it]",9.05,38.83,6.3,,,
"DVWHSAY [Peptide W3, 7-amino-acid loop peptide from non-irradiated population; tested as Cy5.5-labeled M13 phage expressing it]",,,,1.90,3.54,8.1
"QRSLPSL [Peptide W2, 7-amino-acid loop peptide from non-irradiated population; tested as Cy5.5-labeled M13 phage expressing it]",,,,2.19,2.68,18.2
Cy5.5 [reference compound],1.00,1.00,,1.00,1.00,
